Columns and labels:
[1] = molecular target: T1, PHGDH (PGAM1 knockdown cell lysates or recombinant PHGDH) (Homo sapiens, UniProt O43175); experiment: PHGDH enzyme assay; assay type: biochemical
T1 construct: endogenous in cells; also recombinant rPHGDH of unstated origin
T1 sequence (O43175 1-533): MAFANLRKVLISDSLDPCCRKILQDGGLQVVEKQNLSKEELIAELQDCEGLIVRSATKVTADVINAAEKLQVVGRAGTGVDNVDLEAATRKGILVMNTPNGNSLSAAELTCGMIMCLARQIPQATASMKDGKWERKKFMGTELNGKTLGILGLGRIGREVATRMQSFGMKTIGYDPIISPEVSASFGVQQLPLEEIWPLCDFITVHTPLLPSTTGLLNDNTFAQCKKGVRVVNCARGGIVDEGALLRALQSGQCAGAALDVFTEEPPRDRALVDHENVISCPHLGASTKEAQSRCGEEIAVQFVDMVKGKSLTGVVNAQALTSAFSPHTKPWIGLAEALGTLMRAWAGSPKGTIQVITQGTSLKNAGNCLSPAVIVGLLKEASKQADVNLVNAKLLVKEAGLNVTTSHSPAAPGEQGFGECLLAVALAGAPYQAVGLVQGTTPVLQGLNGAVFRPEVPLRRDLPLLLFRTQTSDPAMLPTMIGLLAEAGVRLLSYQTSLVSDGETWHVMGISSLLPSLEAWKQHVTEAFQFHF
Method: PHGDH activity was spectrophotometrically measured as described previously. PHGDH enzyme buffer containing 200 mM Tris-HCl (pH8.1), 400 mM KCl, 0.6 mM NAD, 2 mM GSH, 10 mM EDTA was mixed with cell lysates or recombinant PHGDH protein. The reaction was initiated by the addition of 3-PG to a final concentration of 10 mM and followed by measuring the increase in absorbance at 340 nm over a 10 min period.

[2] = molecular target: T2, 6PGD (H1299 cell lysates or recombinant 6PGD) (Homo sapiens, UniProt P52209); experiment: 6PGD enzyme assay; assay type: biochemical
T2 construct: endogenous in cells; host or cells: H1299 cell lysates; part of the results with recombinant 6PGD of unstated origin
T2 sequence (P52209 1-483): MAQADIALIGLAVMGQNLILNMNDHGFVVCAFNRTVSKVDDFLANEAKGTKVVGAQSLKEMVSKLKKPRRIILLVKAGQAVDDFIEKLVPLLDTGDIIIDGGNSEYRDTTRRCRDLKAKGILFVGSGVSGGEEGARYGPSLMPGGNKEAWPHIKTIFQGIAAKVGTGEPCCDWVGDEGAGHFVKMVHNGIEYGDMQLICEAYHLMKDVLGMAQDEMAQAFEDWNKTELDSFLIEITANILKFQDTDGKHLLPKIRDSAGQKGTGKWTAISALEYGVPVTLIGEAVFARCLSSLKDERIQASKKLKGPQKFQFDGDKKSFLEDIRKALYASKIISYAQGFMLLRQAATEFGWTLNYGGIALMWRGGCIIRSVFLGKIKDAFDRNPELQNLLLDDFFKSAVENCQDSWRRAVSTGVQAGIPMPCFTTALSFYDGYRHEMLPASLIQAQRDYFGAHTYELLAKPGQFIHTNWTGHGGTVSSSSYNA
Method: (§1) G6PD activity was determined by the NADPH production rate from G6PD and 6PGD, then subtracting that of 6PGD, since a product of G6PD, 6-phosphogluconolactone, is rapidly hydrolyzed to a substrate of 6PGD, 6-phosphogluconate, in cells. To obtain the combined dehydrogenase activity, substrates for both dehydrogenase enzymes were added to a cuvette. In another cuvette, substrates for the second enzyme, 6PGD, were added to obtain the activity of this enzyme. Substrate concentrations were as follows: 0.2 mM glucose 6-phosphate, 0.2 mM 6-phosphogluconate, and 0.1 mM NADP^+. 10 μg of cell lysates or 1 μg of recombinant protein were added to a cuvette containing buffer (50 mM Tris, 1 mM MgCl2, pH 8.1) and then the reaction was initiated by NADP^+. The increase of absorbance at 341 nm was measured by a DU800 spectrophotometer (Beckman).

[3] = molecular target: T3, G6PD (H1299 cell lysates or rG6PD) (Homo sapiens, UniProt P11413); experiment: G6PD enzyme assay; assay type: biochemical; details: increasing concentrations of 3-PG
T3 construct: endogenous in cells; host or cells: H1299 cell lysates; also recombinant rG6PD of unstated origin
T3 sequence (P11413 whole entry): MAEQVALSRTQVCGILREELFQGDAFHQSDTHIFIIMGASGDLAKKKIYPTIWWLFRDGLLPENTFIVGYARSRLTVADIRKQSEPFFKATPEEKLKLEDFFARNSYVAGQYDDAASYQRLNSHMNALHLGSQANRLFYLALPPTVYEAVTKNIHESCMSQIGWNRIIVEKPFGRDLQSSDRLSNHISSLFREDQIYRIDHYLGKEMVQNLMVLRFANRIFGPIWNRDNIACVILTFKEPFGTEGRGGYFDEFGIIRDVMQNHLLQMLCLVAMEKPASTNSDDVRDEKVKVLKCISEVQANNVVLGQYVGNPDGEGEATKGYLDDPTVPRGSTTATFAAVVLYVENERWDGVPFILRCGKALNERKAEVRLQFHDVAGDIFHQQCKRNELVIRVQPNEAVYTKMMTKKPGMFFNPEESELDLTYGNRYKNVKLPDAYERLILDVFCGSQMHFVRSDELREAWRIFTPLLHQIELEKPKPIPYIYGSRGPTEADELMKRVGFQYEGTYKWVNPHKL
Method: as §1

6PGD = molecular target: T4, 6PGD (Homo sapiens, UniProt P52209); assay type: binding
T4 sequence (P52209 1-483): T2 sequence (P52209 1-483)
Method: In brief, thermal shift assay of compound-protein interaction was performed in 384-well PCR plates with various compound concentrations and 200 μg/ml protein in a buffer solution (20 mM Tris-HCl, 100 mM NaCl, pH 7.4). SYPRO orange was used as a dye to monitor the fluorescence change at 610 nm. Small molecules were dissolved in DMSO and added to protein solution. Final DMSO concentration of solution is 1%. Dissociation constants (Kds) for protein-ligand interaction were calculated using the method as described.
The fluorescence intensity data were fitted to Eq. (1) to obtain ΔHu, ΔCpu, and Tm by nonlinear regression using the program Prism:
The thermal unfolding parameters for 6PGD and PGAM1 alone were determined from 4 control wells, each containing 0.2 mg/mL protein.

[4] = tested on: Y26 phosphorylation of PGAM1; experiment: PGAM1 Y26 phosphorylation in human cancer cell lines; assay type: cell-based; details: pertinent human cancer cell lines (KG1a, HEL)
PGAM1 = PGAM1 (Homo sapiens, UniProt P18669); details: cited from earlier work
Sequence of PGAM1 (P18669 whole entry): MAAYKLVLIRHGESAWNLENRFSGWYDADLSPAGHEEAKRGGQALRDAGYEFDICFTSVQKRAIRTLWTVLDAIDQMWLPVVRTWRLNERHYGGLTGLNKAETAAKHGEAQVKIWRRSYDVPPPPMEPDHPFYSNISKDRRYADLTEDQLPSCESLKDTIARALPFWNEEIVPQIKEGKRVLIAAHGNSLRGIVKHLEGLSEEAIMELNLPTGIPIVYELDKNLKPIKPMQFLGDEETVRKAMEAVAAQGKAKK

[5] = molecular target: T5, purified human PGAM1 proteins (recombinant PGAM1) (Homo sapiens, UniProt P18669); experiment: In vitro PGAM1 enzyme assay (coupled enolase/PKM1/LDH, NADH oxidation); assay type: biochemical; details: for relative PGAM1 inhibitory potency in vitro: purified recombinant PGAM1, comparison among alizarin, alizarin Red S and PGMI-004A; for screening outcome (PGAM1 primary screen, enolase secondary screen): library screen with coupled PGAM1 and enolase assays
T5 construct: (His)6; made in house; host or cells: E. coli BL21(DE3)pLysS (pET53 vector)
T5 sequence (P18669 whole entry): as above
Method: An in vitro PGAM1 assay was performed as primary screening. PGAM1 enzyme mix was prepared containing 100 mM Tris-HCl, 100 mM KCl, 5 mM MgCl2, 1 mM ADP, 0.2 mM NADH, 5 mg/ml recombinant PGAM1, 0.5 units/ml enolase, 0.5 units/ml recombinant pyruvate kinase M1, and 0.1 units/ml recombinant LDH. 3-PG was added last at the final concentration of 2 mM to initiate the reaction. […] An in vitro enolase assay as secondary screening was also performed. Enolase enzyme mix was prepared containing 100 mM Tris-HCl, 100 mM KCl, 5 mM MgCl2, 1 mM ADP, 0.2 mM NADH, 0.5 units/ml enolase, 0.5 units/ml recombinant pyruvate kinase M1, and 0.1 units/ml recombinant LDH. 2-PG was added last at the final concentration of 2 mM to initiate the reaction. […] Assay was carried out in Tris-HCl buffer (10 mM Tris, pH 7.4, 100 mM NaCl) containing 5% DMSO.
PGAM1 activity was measured by multiple enzymes coupled assay. PGAM1 enzyme mix containing 100 mM Tris-HCl, 100 mM KCl, 5 mM MgCl2, 1 mM ADP, 0.2 mM NADH, 5 mg/ml recombinant PGAM1, 0.5 units/ml enolase, 0.5 units/ml recombinant pyruvate kinase M1, and 0.1 units/ml recombinant LDH was prepared. 3-PG was added last at a final concentration of 2 mM to initiate the reaction.

[6] = tested on: human leukemia KG1a cells; experiment: Cell proliferation/viability assay, KG1a; assay type: cell-based; details: increasing concentrations (72h)
Method: For leukemia cell proliferation assay, 10×10^4 cells were seeded in non-tissue culture coated 6-well plate and incubated at 37° C. for indicated times. Cell numbers were counted by trypan blue exclusion under a microscope (×40) at indicated times and the percentage of cell proliferation was determined by comparing PGAM1 knockdown cells to pLKO.1 vector expressing cells. […] Cell viability was determined by counting drug-treated cells compared to DMSO-treated control cells with trypan blue exclusion under a microscope (×40) and by using CellTiter96Aqueous One solution proliferation kit (Promega). For adherent cell proliferation assay such as H1299 and MDA-MB231 cells, 5×10^4 cells were seeded in 6-well plate 24 h before the assay starts and were cultured at 37° C. 24 h after seeding, cells were treated with 5 μM Methyl-2PG and incubated at 37° C. for indicated times. Cell proliferation was determined by the increase in cell number indicated times after the treatment starts compared to that at the treatment starts for each cell line (T=0). Cell numbers were counted by trypan blue exclusion under a microscope (×40). […] Cell viability was determined by counting drug-treated cells compared to DMSO-treated control cells with trypan blue exclusion under a microscope (×40). […] Cell viability was determined by using CellTiter96Aqueous One solution proliferation kit (Promega).

H1299 cells = experiment: Cell proliferation assay, H1299; assay type: cell-based, human; details: H1299 cells
Method: For leukemia cell proliferation assay, 10×10^4 cells were seeded in non-tissue culture coated 6-well plate and incubated at 37° C. for indicated times. Cell numbers were counted by trypan blue exclusion under a microscope (×40) at indicated times and the percentage of cell proliferation was determined by comparing PGAM1 knockdown cells to pLKO.1 vector expressing cells. […] Cell viability was determined by counting drug-treated cells compared to DMSO-treated control cells with trypan blue exclusion under a microscope (×40) and by using CellTiter96Aqueous One solution proliferation kit (Promega). For adherent cell proliferation assay such as H1299 and MDA-MB231 cells, 5×10^4 cells were seeded in 6-well plate 24 h before the assay starts and were cultured at 37° C. 24 h after seeding, cells were treated with 5 μM Methyl-2PG and incubated at 37° C. for indicated times. Cell proliferation was determined by the increase in cell number indicated times after the treatment starts compared to that at the treatment starts for each cell line (T=0). Cell numbers were counted by trypan blue exclusion under a microscope (×40). For adherent cell viability assay with trypan blue exclusion, 5×10^4 cells were seeded in 6-well plate 24 h before the assay starts and were cultured at 37° C. […] Cell viability was determined by counting drug-treated cells compared to DMSO-treated control cells with trypan blue exclusion under a microscope (×40). For MTT cell viability assay of adherent cells, 5×10^3 cells were seeded in 96-well plate 24 h before the assay starts and were cultured at 37° C. […] Cell viability was determined by using CellTiter96Aqueous One solution proliferation kit (Promega).

O=C(O)[C@@H](CO)OP(=O)(O)O [2-PG, 2-phosphoglycerate]
enzyme activity of recombinant PHGDH (rPHGDH) ([1]; increasing concentrations of 2-PG): increased enzyme activity of recombinant PHGDH | PHGDH activity ([1]; ~15 μM 2-PG): did not significantly affect PHGDH activity | PHGDH enzyme activity ([1]; ~45 μM or ~60 μM 2-PG, H1299 PGAM1 knockdown cell lysates): higher PHGDH enzyme activity | 6PGD enzyme activity ([2]; 2-PG treatment, H1299 cell lysates or r6PGD): did not affect 6PGD enzyme activity

O=C(O)[C@H](O)COP(=O)(O)O [3-PG, 3-phosphoglycerate]
Ki ([2]; Dixon plot, read-out: inhibition constant (Ki) for 6PGD): 489 ± 13 µM | mode of 6PGD inhibition ([2]; Lineweaver-Burk plot, ~250 μM 3-PG, ~35 μM 6-PG): competitive inhibitor | 6PGD enzyme activity ([2]; ~60 μM 3-PG (physiological), H1299 cell lysates or recombinant 6PGD): do not significantly affect 6PGD enzyme activity | 6PGD enzyme activity ([2]; ~250 μM 3-PG, H1299 cell lysates or recombinant 6PGD): decreased enzyme activity of 6PGD | G6PD activity [3]: did not significantly affect G6PD activity | 6PGD melting temperature (Tm) (6PGD; increasing concentrations, 100 μM to 25 mM): raises 6PGD melting temperature (Tm) in a dose-dependent manner | Kd (6PGD; read-out: Kd for interaction with 6PGD): 460 ± 40 µM

N#C/C(=C/c1ccc(O)c(O)c1)C(=O)NCc1ccccc1 [AG490]
Y26 phosphorylation of PGAM1 [4]: decreased Y26 phosphorylation of PGAM1

C#CCCCC(=O)OC(C)(C)C1CCC2(CO2)C(OC(=O)NC(Cc2c[nH]c3ccccc23)C(=O)OCc2ccccc2)C1 (stereo not shown) [MJE3]
PGAM1 activity (reported) (PGAM1; Evans et al., 2007, 2005): specifically inhibits PGAM1 activity exclusively in intact cells | cancer cell proliferation (reported) (PGAM1): attenuates cancer cell proliferation

CN1CCN(c2ccc3nc(-c4c(N)c5c(F)cccc5[nH]c4=O)[nH]c3c2)CC1 [TKI258]
Y26 phosphorylation of PGAM1 [4]: decreased Y26 phosphorylation of PGAM1

O=C1c2ccccc2C(=O)c2c1cc(S(=O)(=O)O)c(O)c2O [alizarin Red S, 3,4-dihydroxy-9,10-dioxo-9,10-dihydroanthracene-2-sulfonic acid]
relative PGAM1 inhibitory potency in vitro [5]: more potent PGAM1 inhibitory potential compared to alizarin | relative PGAM1 inhibitory potency in vitro ([5]; listed as Alizarin Red S): more potent PGAM1 inhibitor

O=C1c2ccccc2C(=O)c2c1ccc(O)c2O [alizarin, 1,2-Dihydroxyanthraquinone]
screening outcome (PGAM1 primary screen, enolase secondary screen) [5]: identified as PGAM1 inhibitors | cell proliferation [6]: decreased proliferation | cell proliferation (H1299 cells): decreased proliferation

Oc1c(Cl)cc(Cl)c(Cl)c1Cc1c(O)c(Cl)cc(Cl)c1Cl [hexachlorophene]
screening outcome (PGAM1 primary screen, enolase secondary screen) [5]: identified as PGAM1 inhibitors

O=CC=Cc1ccc(O)cc1 [p-hydroxycinnamaldehyde]
screening outcome (PGAM1 primary screen, enolase secondary screen) [5]: identified as PGAM1 inhibitors
